Source: patent US20110262383A1, “Naphthalimide Dosing by N-Acetyl Transferase Genotyping” (ChemGenex Pharmaceuticals, Inc., priority 2004, published 2011)
Counter-ions that a name gives are not always drawn.

Tests used:
[1] = test system: white blood cell count (WBC); details: patients; cited from earlier work
[2] = Water solubility of amonafide salts; format: physicochemical; details: as compared to a monohydrochloride salt
[3] = test system: Neutrophils; assay: Myelosuppression (reduction of neutrophils) by NAT-2 genotype in patients; format: in vivo, human
Procedure: Thirty-two (32) patients were treated amonafide dihydrochloride. Sixteen (16) were male and sixteen (16) were female. The mean age was 65 years. The dose schedule was days 1, 8, 15 and thereafter every 28 days. The dosages ranged from 300 to 500 mg/m^2 in a dose escalation studied to determine dose limiting toxicity (DLT).
Patients were genotyped to determine their NAT-2 (N-acetyl transferase) genotype. See D. W. Hein, et al., “Molecular Genetics and Epidemiology of the NAT1 and NAT2 Acetylation Polymorphisms,” Cancer Epidemiology, Biomarkers & Prevention Vol. 9, 29-42, January 2000.

Question: Which “effect on white blood cell count” value [1] does the source give for `CC(=O)Nc1cc2c3c(cccc3c1)C(=O)N(CCN(C)C)C2=O` [acetyl amonafide, N-acetyl amonafide] here?
Answer: Its value is “induce leukocytopenia and, in particular, granulocytopenia”.

Question: Which results are given for `CN(C)CCN1C(=O)c2cccc3cc(N)cc(c23)C1=O` [amonafide dihydrochloride, 5-amino-2-[(dimethylamine)ethyl]-1H-benz[de-]isoquinoline-1,3-(2H)-dione]?
Answer: solubility in water [2]: more soluble in water; Average % Reduction of Neutrophils ([3]; I/R (Fast) genotype, 18 patients, dose 400 mg/m2): 78%; Average % Reduction of Neutrophils ([3]; I/R (Fast) genotype, 18 patients, dose 400 mg/m2, listed as amonafide): ~80%; Average % Reduction of Neutrophils ([3]; S (Slow) genotype, 14 patients, dose 500 mg/m2): 55%
